# Read-outs that look alike come from different tables or passages of the source.
# Key:
# Assay in all cases: Ras-Raf disruption / FRET / MOA assay (BRAF RBD)
# Type in all cases: biochemical
# KRAS G12C = KRAS G12C (Homo sapiens, UniProt P01116+P62937, G12C); conditions: with Cyclophilin A
# Outline: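 TR-FRET read-out after 1.5 h with anti-His Eu-W1024 (10 nM) and anti-GST APC (50 nM), following 3 h at 25 °C of compound (top 30 μM, 3-fold, 10 points) with 25 μM Cyclophilin A, 12.5 nM GMPPNP-loaded K-Ras G12C and 50 nM BRAF RBD; IC50 reported.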
# NRAS Q61R = NRAS Q61R (Homo sapiens, UniProt P01111+P62937, Q61R)
# Outline: (§1)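 Compound-induced Ras–Cyclophilin A ternary complex disrupting BRAF RBD binding, read as IC50 from reduced TR-FRET ratio relative to DMSO. Final: Ras-GMPPNP 12.5 nM, BRAF RBD 50 nM, Cyclophilin A 25 μM, top compound 30 μM (3-fold, 10 points); 3 h at 25 °C, then 1.5 h with detection antibodies.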
# NRAS G12C = NRAS G12C (Homo sapiens, UniProt P01111+P62937, G12C)
# Outline: as §1
# KRAS WT = KRAS WT (Homo sapiens, UniProt P01116+P62937); conditions: with Cyclophilin A
# Outline: as §1
# KRAS G12V = KRAS G12V (Homo sapiens, UniProt P01116+P62937, G12V); conditions: with Cyclophilin A
# Outline: as §1
# KRAS G12S = KRAS G12S (Homo sapiens, UniProt P01116+P62937, G12S); conditions: with Cyclophilin A
# Outline: as §1
# KRAS G13C = KRAS G13C (Homo sapiens, UniProt P01116+P62937, G13C); conditions: with Cyclophilin A
# Outline: as §1
# NRAS WT = NRAS WT (Homo sapiens, UniProt P01111+P62937)
# Outline: as §1
# NRAS Q61K = NRAS Q61K (Homo sapiens, UniProt P01111+P62937, Q61K)
# Outline: as §1
# KRAS G13D = KRAS G13D (Homo sapiens, UniProt P01116+P62937, G13D); conditions: with Cyclophilin A
# Outline: as §1
# KRAS G12D = KRAS G12D (Homo sapiens, UniProt P01116+P62937, G12D); conditions: with Cyclophilin A
# Outline: as §1
# KRAS Q61H = KRAS Q61H (Homo sapiens, UniProt P01116+P62937, Q61H)
# Outline: as §1
# [1] = Ras-Raf disruption, read-out: KRAS G12C FRET data IC50
# [2] = NRAS Q61R, read-out: NRAS Q61R FRET data IC50
# [3] = NRAS G12C, read-out: NRAS G12C FRET data IC50
# [4] = Ras-Raf disruption, read-out: KRAS WT FRET data IC50
# [5] = Ras-Raf disruption, read-out: KRAS G12V FRET data IC50
# [6] = Ras-Raf disruption, read-out: KRAS G12S FRET data IC50
# [7] = Ras-Raf disruption, read-out: KRAS G13C FRET data IC50
# [8] = NRAS WT, read-out: NRAS WT FRET data IC50
# [9] = NRAS Q61K, read-out: NRAS Q61K FRET data IC50
# [10] = Ras-Raf disruption, read-out: KRAS G13D FRET data IC50
# [11] = Ras-Raf disruption, read-out: KRAS G12D FRET data IC50
# [12] = KRAS Q61H, read-out: KRAS Q61H FRET data IC50
# [13] = KRAS G12C FRET data IC50, Ras-Raf disruption
# [14] = NRAS G12C FRET data IC50, NRAS G12C
# [15] = KRAS WT FRET data IC50, Ras-Raf disruption
# [16] = KRAS G12V FRET data IC50, Ras-Raf disruption
# [17] = KRAS G12S FRET data IC50, Ras-Raf disruption
# [18] = KRAS G13C FRET data IC50, Ras-Raf disruption
# [19] = KRAS G13D FRET data IC50, Ras-Raf disruption
# [20] = KRAS G12D FRET data IC50, Ras-Raf disruption
# KRAS G12S, sequence (P01116 1-169 isoform P01116-2 G12S limits assumed): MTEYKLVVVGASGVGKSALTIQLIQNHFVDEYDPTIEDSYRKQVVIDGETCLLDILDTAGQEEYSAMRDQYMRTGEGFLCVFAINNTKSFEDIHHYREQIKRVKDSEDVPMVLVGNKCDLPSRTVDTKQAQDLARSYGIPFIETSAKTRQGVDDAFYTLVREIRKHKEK
# KRAS G12S, sequence (P62937 whole entry): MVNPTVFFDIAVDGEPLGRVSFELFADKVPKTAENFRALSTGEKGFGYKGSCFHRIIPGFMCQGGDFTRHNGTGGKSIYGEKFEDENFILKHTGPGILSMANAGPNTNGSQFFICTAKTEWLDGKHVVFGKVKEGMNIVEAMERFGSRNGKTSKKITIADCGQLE
# NRAS Q61K, sequence (P01111 whole entry Q61K): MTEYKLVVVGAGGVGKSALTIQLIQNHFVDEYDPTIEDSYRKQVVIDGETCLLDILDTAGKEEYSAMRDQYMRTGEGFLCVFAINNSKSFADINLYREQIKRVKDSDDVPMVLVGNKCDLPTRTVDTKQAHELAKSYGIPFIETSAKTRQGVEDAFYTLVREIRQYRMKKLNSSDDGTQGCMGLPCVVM
# NRAS Q61K, sequence (P62937 whole entry): as the sequence (P62937 whole entry) above
# NRAS WT, sequence (P01111 whole entry): as the sequence (P01111 whole entry Q61K) above, with K61Q counted along it
# NRAS WT, sequence (P62937 whole entry): as the sequence (P62937 whole entry) above
# KRAS G13C, sequence (P01116 1-169 isoform P01116-2 G13C limits assumed): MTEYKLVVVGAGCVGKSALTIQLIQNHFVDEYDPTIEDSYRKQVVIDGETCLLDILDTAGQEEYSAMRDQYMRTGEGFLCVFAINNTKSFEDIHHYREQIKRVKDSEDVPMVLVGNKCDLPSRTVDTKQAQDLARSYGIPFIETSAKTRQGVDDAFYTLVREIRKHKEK
# KRAS G13C, sequence (P62937 whole entry): as the sequence (P62937 whole entry) above
# NRAS G12C, sequence (P01111 whole entry G12C): as the sequence (P01111 whole entry Q61K) above, with G12C, K61Q counted along it
# NRAS G12C, sequence (P62937 whole entry): as the sequence (P62937 whole entry) above
# KRAS G12D, sequence (P01116 1-169 isoform P01116-2 G12D limits assumed): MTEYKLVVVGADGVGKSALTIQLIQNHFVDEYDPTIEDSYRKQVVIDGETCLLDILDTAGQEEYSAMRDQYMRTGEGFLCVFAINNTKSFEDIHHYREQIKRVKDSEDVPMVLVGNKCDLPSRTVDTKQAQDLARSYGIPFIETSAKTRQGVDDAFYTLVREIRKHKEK
# KRAS G12D, sequence (P62937 whole entry): as the sequence (P62937 whole entry) above
# KRAS WT, sequence (P01116 1-169 isoform P01116-2 limits assumed): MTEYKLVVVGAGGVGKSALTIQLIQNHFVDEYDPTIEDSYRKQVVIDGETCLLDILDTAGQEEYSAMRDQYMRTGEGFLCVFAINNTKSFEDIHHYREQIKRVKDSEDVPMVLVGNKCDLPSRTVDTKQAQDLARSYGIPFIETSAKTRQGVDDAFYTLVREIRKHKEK
# KRAS WT, sequence (P62937 whole entry): as the sequence (P62937 whole entry) above
# NRAS Q61R, sequence (P01111 whole entry Q61R): as the sequence (P01111 whole entry Q61K) above, with K61R counted along it
# NRAS Q61R, sequence (P62937 whole entry): as the sequence (P62937 whole entry) above
# KRAS Q61H, sequence (P01116 1-169 isoform P01116-2 Q61H limits assumed): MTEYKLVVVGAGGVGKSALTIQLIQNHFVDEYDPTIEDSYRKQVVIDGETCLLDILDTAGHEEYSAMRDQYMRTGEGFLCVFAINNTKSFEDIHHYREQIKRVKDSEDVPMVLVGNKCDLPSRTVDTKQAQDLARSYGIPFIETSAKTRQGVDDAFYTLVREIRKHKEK
# KRAS Q61H, sequence (P62937 whole entry): as the sequence (P62937 whole entry) above
# KRAS G12V, sequence (P01116 1-169 isoform P01116-2 G12V limits assumed): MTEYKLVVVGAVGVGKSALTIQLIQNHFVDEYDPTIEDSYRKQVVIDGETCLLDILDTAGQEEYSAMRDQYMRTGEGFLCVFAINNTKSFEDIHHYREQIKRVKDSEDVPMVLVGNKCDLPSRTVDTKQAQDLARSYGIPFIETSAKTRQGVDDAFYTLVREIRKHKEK
# KRAS G12V, sequence (P62937 whole entry): as the sequence (P62937 whole entry) above
# KRAS G13D, sequence (P01116 1-169 isoform P01116-2 G13D limits assumed): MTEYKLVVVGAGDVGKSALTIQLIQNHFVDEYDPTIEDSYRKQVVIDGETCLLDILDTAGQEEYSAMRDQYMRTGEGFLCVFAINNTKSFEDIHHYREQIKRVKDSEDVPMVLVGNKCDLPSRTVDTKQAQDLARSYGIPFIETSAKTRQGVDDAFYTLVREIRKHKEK
# KRAS G13D, sequence (P62937 whole entry): as the sequence (P62937 whole entry) above
# KRAS G12C, sequence (P01116 1-169 isoform P01116-2 G12C limits assumed): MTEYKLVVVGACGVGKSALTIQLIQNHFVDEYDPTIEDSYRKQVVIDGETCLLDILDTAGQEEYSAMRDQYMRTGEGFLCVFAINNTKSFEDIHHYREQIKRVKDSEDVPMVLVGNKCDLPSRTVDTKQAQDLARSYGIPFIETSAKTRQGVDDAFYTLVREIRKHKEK
# KRAS G12C, sequence (P62937 whole entry): as the sequence (P62937 whole entry) above
SMILES,IC50 (KRAS G12C; [13]) [nM],IC50 (NRAS Q61R) [nM],IC50 (NRAS G12C; [14]) [nM],IC50 (KRAS WT; [15]) [nM],IC50 (KRAS G12V; [16]) [nM],IC50 (KRAS G12S; [17]) [nM],IC50 (KRAS G13C; [18]) [nM],IC50 (NRAS WT) [nM],IC50 (NRAS Q61K) [nM],IC50 (KRAS G13D; [19]) [nM],IC50 (KRAS G12D; [20]) [nM],IC50 (KRAS Q61H) [nM],further results
CCn1c(-c2cccnc2[C@H](C)OC)c2c3cc(ccc31)-c1cc(O)cc(c1)C[C@H](NC(=O)[C@H](C(C)C)N1CC[C@]3(CCN(C(=O)[C@@H]4N[C@@H]4C4CC4)C3)C1=O)C(=O)N1CCC[C@H](N1)C(=O)OCC(C)(C)C2 [Example 305],–,–,–,–,–,–,–,–,–,–,–,–,IC50 (KRAS G12C; [1]): 10 to 100 nM; IC50 (NRAS Q61R; [2]): 100 to 1000 nM; IC50 (NRAS G12C; [3]): 10 to 100 nM; IC50 (KRAS WT; [4]): 10 to 100 nM; IC50 (KRAS G12V; [5]): 10 to 100 nM; IC50 (KRAS G12S; [6]): 10 to 100 nM; IC50 (KRAS G13C; [7]): 10 to 100 nM; IC50 (NRAS WT; [8]): 10 to 100 nM; IC50 (NRAS Q61K; [9]): 100 to 1000 nM; IC50 (KRAS G13D; [10]): 100 to 1000 nM; IC50 (KRAS G12D; [11]): < 10 nM; IC50 (KRAS Q61H; [12]): 10 to 100 nM
CCN1C[C@@H]1C(=O)N(C)CC(=O)N(C)[C@H](C(=O)N[C@H]1Cc2cc(O)cc(c2)-c2ccc3c(c2)c(c(-c2cccnc2[C@H](C)OC)n3CC)CC(C)(C)COC(=O)[C@@H]2CCCN(N2)C1=O)C1CCCC1 (stereo partly drawn) [Example 309],< 10,100 to 1000,< 10,10 to 100,10 to 100,10 to 100,10 to 100,10 to 100,100 to 1000,10 to 100,10 to 100,10 to 100,–
CCn1c(-c2cccnc2[C@H](C)OC)c2c3cc(ccc31)-c1cc(O)cc(c1)C[C@H](NC(=O)[C@@H](COC1CN(C(=O)[C@H]3CN3)C1)C(C)C)C(=O)N1CCC[C@H](N1)C(=O)OCC(C)(C)C2 [Example 312],–,–,–,–,–,–,–,–,–,–,–,–,IC50 (KRAS G12C; [1]): < 10 nM; IC50 (NRAS Q61R; [2]): 1000 to 10000 nM; IC50 (NRAS G12C; [3]): < 10 nM; IC50 (KRAS WT; [4]): 100 to 1000 nM; IC50 (KRAS G12V; [5]): 1000 to 10000 nM; IC50 (KRAS G12S; [6]): 1000 to 10000 nM; IC50 (KRAS G13C; [7]): 100 to 1000 nM; IC50 (NRAS WT; [8]): 100 to 1000 nM; IC50 (NRAS Q61K; [9]): 1000 to 10000 nM; IC50 (KRAS G13D; [10]): 1000 to 10000 nM; IC50 (KRAS G12D; [11]): 1000 to 10000 nM; IC50 (KRAS Q61H; [12]): 100 to 1000 nM
CCn1c(-c2cccnc2[C@H](C)OC)c2c3cc(ccc31)-c1cc(O)cc(c1)C[C@H](NC(=O)[C@H](C1CCCC1)N(C)C(=O)CN(C)C(=O)[C@@H]1N[C@@H]1C1(F)CC1)C(=O)N1CCC[C@H](N1)C(=O)OCC(C)(C)C2 [Example 314],10 to 100,100 to 1000,10 to 100,10 to 100,10 to 100,10 to 100,10 to 100,10 to 100,100 to 1000,10 to 100,100 to 1000,10 to 100,–
CCn1c(-c2cccnc2[C@H](C)OC)c2c3cc(ccc31)-c1cc(O)cc(c1)C[C@H](NC(=O)[C@H](C1CCCC1)N(C)C(=O)CN(C)C(=O)[C@H]1N[C@H]1C1(F)CC1)C(=O)N1CCC[C@H](N1)C(=O)OCC(C)(C)C2 [Example 315],10 to 100,100 to 1000,10 to 100,10 to 100,10 to 100,10 to 100,10 to 100,< 10,10 to 100,10 to 100,10 to 100,10 to 100,–
CCn1c(-c2cccnc2[C@H](C)OC)c2c3cc(ccc31)-c1cc(O)cc(c1)C[C@H](NC(=O)[C@H](C1CCCC1)N(C)C(=O)CN(C)C(=O)[C@H]1N[C@H]1C1(C#N)CC1)C(=O)N1CCC[C@H](N1)C(=O)OCC(C)(C)C2 [Example 316],10 to 100,100 to 1000,10 to 100,10 to 100,10 to 100,10 to 100,10 to 100,10 to 100,100 to 1000,10 to 100,10 to 100,10 to 100,–
CCn1c(-c2cccnc2[C@H](C)OC)c2c3cc(ccc31)-c1cc(O)cc(c1)C[C@H](NC(=O)[C@H](C1CCCC1)N(C)C(=O)CN(C)C(=O)[C@H]1[C@@H](C3CC3)N1CCCOC)C(=O)N1CCC[C@H](N1)C(=O)OCC(C)(C)C2 (stereo partly drawn) [Example 317],10 to 100,100 to 1000,10 to 100,10 to 100,10 to 100,10 to 100,10 to 100,10 to 100,100 to 1000,100 to 1000,100 to 1000,10 to 100,–

# Reference: patent publication US20230233569A1 (Revolution Medicines, Inc., priority 2020, published 2023)
